One series addresses T1, HCV polymerase (Hepatitis C virus genotype 1b, UniProt P26663).
T1 construct: a region encoding NS5B (591 amino acids; J Virol 1991 Mar, 65(3), 1105-13) was amplified by PCR; 6 His (N); made in house; host or cells: Escherichia coli
As to the kind of experiment: biochemical. The settings on record: read-out: HCV polymerase inhibitory activity IC50.

Molecules are shown by their SMILES. Counter-ions that a name gives are not always drawn.

T1 sequence (P26663 2420-3010): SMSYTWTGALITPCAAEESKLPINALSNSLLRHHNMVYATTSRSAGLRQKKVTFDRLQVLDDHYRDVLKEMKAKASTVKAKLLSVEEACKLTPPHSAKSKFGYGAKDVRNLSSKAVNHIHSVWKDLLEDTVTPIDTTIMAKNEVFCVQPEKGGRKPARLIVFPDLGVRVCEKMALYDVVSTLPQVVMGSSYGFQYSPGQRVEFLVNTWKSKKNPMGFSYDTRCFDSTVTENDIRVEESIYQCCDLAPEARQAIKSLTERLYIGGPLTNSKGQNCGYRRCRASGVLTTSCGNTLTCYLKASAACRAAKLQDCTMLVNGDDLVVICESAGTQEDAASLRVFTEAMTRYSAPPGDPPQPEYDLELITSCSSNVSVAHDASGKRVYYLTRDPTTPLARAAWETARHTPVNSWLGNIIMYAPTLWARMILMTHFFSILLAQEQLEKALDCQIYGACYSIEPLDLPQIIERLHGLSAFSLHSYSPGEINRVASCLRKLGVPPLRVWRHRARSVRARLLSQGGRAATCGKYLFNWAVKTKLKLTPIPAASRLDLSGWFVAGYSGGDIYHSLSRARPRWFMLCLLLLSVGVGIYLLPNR

On to `NC(=O)c1ccc2c(c1)nc(-c1ccc(OCc3ccccc3)cc1)n2C1CCCC1`, for which the melting point was in the range of 232 to 233 °C.

In turn, `Cl.O=C(O)c1ccc2c(c1)nc(-c1ccc(OCc3cc(N4CCCC4=O)ccc3-c3ccc(Cl)cc3)cc1F)n2C1CCCCC1` gave a melting point of 243 to 246 °C.

In turn, `O=C(O)c1ccc2c(c1)nc(-c1ccc(Oc3cccc(Br)c3)cc1)n2C1CCCCC1` [Example 2, 2-[4-(3-bromophenoxy)phenyl]-1-cyclohexylbenzimidazole-5-carboxylic acid] returned a melting point of 255 to 256 °C. Also, the IC50 on HCV polymerase stood at 79 nM.

Turning to `O=C(O)c1ccc2c(c1)nc(-c1ccc(OCc3cc(Cl)ccc3-c3ccc(Cl)cc3)cc1)n2C1CCCCC1` [Example 6], the melting point lay in the range of 243 to 244 °C.

`COc1ccc(-c2ccc(Cl)cc2)c(COc2ccc(-c3nc4cc(C(=O)O)ccc4n3C3CCCCC3)cc2)c1` [Example 9, 2-{4-[2-(4-chlorophenyl)-5-methoxybenzyloxy]phenyl}-1-cyclohexylbenzimidazole-5-carboxylic acid] returned a melting point of 248 to 249 °C. Also, the IC50 on HCV polymerase was 19 nM.

Take `Cc1nc(-c2ccc(F)cc2)c(COc2ccc(-c3nc4cc(C(=O)O)ccc4n3C3CCCCC3)cc2)s1` [Example 17, 1-cyclohexyl-2-{4-[{4-(4-fluorophenyl)-2-methyl-5-thiazolyl}methoxy]phenyl}benzimidazole-5-carboxylic acid]: the melting point was 196 to 198 °C. Further, at HCV polymerase, the IC50 worked out at 47 nM.

Consider `O=C(O)c1ccc2c(c1)nc(-c1ccc(OC(c3cccc(F)c3)c3cccc(F)c3)cc1F)n2C1CCCCC1` [Example 20, 2-{4-(bis[3-fluorophenyl]methoxy)-2-fluorophenyl}-1-cyclohexylbenzimidazole-5-carboxylic acid], for which the melting point fell in the range of 242 to 243 °C. For the same compound, the half-maximal inhibitory concentration (IC50) on HCV polymerase was 42 nM.

Take `O=C(O)c1ccc2c(c1)nc(-c1ccc(Oc3cccc(-c4cccc(Cl)c4)c3)cc1)n2C1CCCCC1` [Example 26, 2-{4-[3-(3-chlorophenyl)phenoxy]phenyl}-1-cyclohexylbenzimidazole-5-carboxylic acid]: the melting point is 253 to 254 °C. The IC50 at HCV polymerase was 33 nM.

Turning to `CCCN(C(C)=O)c1ccc(-c2ccc(Cl)cc2)c(COc2ccc(-c3nc4cc(C(=O)O)ccc4n3C3CCCCC3)c(F)c2)c1` [Example 460, 2-[4-{2-(4-chlorophenyl)-5-(N-acetyl-N-propylamino)benzyloxy}-2-fluorophenyl]-1-cyclohexylbenzimidazole-5-carboxylic acid hydrochloride], the IC50 at HCV polymerase worked out at 17 nM.

For the compound `CCN(c1ccc(-c2ccc(Cl)cc2)c(COc2ccc(-c3nc4cc(C(=O)O)ccc4n3C3CCCCC3)c(F)c2)c1)S(C)(=O)=O` [Example 461, 2-[4-{2-(4-chlorophenyl)-5-[N-ethyl-N-(methylsulfonyl)amino]-benzyloxy}-2-fluorophenyl]-1-cyclohexylbenzimidazole-5-carboxylic acid hydrochloride], on HCV polymerase, the IC50 was 21 nM.

`CCCN(c1ccc(-c2ccc(Cl)cc2)c(COc2ccc(-c3nc4cc(C(=O)O)ccc4n3C3CCCCC3)c(F)c2)c1)S(C)(=O)=O` [Example 462, 2-[4-{2-(4-chlorophenyl)-5-[N-(methylsulfonyl)-N-propylamino]benzyloxy}-2-fluorophenyl]-1-cyclohexylbenzimidazole-5-carboxylic acid hydrochloride]: the IC50 on HCV polymerase is 28 nM.

For the compound `CC(=O)N(C)c1ccc(-c2ccc(Cl)cc2)c(COc2ccc(-c3nc4cc(C(=O)O)ccc4n3C3CCCCC3)c(F)c2)c1` [Example 463, 2-[4-{2-(4-chlorophenyl)-5-(N-acetyl-N-methylamino)benzyloxy}-2-fluorophenyl]-1-cyclohexylbenzimidazole-5-carboxylic acid hydrochloride], the IC50 on HCV polymerase was determined as 26 nM.

For the compound `CCS(=O)(=O)N(C)c1ccc(-c2ccc(Cl)cc2)c(COc2ccc(-c3nc4cc(C(=O)O)ccc4n3C3CCCCC3)c(F)c2)c1` [Example 464, 2-[4-{2-(4-chlorophenyl)-5-[N-(ethylsulfonyl)-N-methylamino]-benzyloxy}-2-fluorophenyl]-1-cyclohexylbenzimidazole-5-carboxylic acid hydrochloride], the IC50 on HCV polymerase turned out to be 30 nM.

For `CCN(c1ccc(-c2ccc(Cl)cc2)c(COc2ccc(-c3nc4cc(C(=O)O)ccc4n3C3CCCCC3)c(F)c2)c1)S(=O)(=O)CC` [Example 465, 2-[4-{2-(4-chlorophenyl)-5-[N-ethyl-N-(ethylsulfonyl)amino]-benzyloxy}-2-fluorophenyl]-1-cyclohexylbenzimidazole-5-carboxylic acid hydrochloride], the IC50 at HCV polymerase came out at 33 nM.

For the compound `CCC(=O)N(C)c1ccc(-c2ccc(Cl)cc2)c(COc2ccc(-c3nc4cc(C(=O)O)ccc4n3C3CCCCC3)c(F)c2)c1` [Example 466, 2-[4-{2-(4-chlorophenyl)-5-[N-(ethylcarbonyl)-N-methylamino]-benzyloxy}-2-fluorophenyl]-1-cyclohexylbenzimidazole-5-carboxylic acid hydrochloride], the 50% inhibitory concentration (IC50) on HCV polymerase was 23 nM.

Consider `CCC(=O)N(CC)c1ccc(-c2ccc(Cl)cc2)c(COc2ccc(-c3nc4cc(C(=O)O)ccc4n3C3CCCCC3)c(F)c2)c1` [Example 467, 2-[4-{2-(4-chlorophenyl)-5-[N-ethyl-N-(ethylcarbonyl)amino]-benzyloxy}-2-fluorophenyl]-1-cyclohexylbenzimidazole-5-carboxylic acid hydrochloride], for which the IC50 at HCV polymerase was 32 nM.

In the case of `COc1ccc(-c2ccc(Cl)cc2)c(COc2ccc(-c3nc4cc(C(=O)O)ccc4n3C3CCCCC3)c(F)c2)c1` [Example 468, 2-[4-{2-(4-chlorophenyl)-5-methoxybenzyloxy}-2-fluorophenyl]-1-cyclohexylbenzimidazole-5-carboxylic acid], the IC50 on HCV polymerase turned out to be 28 nM.

In the case of `CC(=O)N(c1ccc(-c2ccc(Cl)cc2)c(COc2ccc(-c3nc4cc(C(=O)O)ccc4n3C3CCCCC3)c(F)c2)c1)C(C)C` [Example 469, 2-[4-{2-(4-chlorophenyl)-5-(N-acetyl-N-isopropylamino)-benzyloxy}-2-fluorophenyl]-1-cyclohexylbenzimidazole-5-carboxylic acid hydrochloride], on HCV polymerase, the IC50 worked out at 24 nM.

In the case of `COc1ccc(-c2ccc(Cl)cc2)c(COc2ccc(-c3cc4cc(C(=O)O)ccc4n3C3CCCCC3)cc2)c1` [Example 502, 2-{4-[2-(4-chlorophenyl)-5-methoxybenzyloxy]phenyl}-1-cyclohexyl-1H-indole-5-carboxylate acid], the concentration for half-maximal inhibition (IC50) at HCV polymerase is 24 nM.

With `O=C(O)c1ccc2c(c1)cc(-c1ccc(OCc3ccccc3)cc1)n2C1CCCC1` [Example 503, 2-(4-benzyloxyphenyl)-1-cyclopentyl-1H-indole-5-carboxylic acid], at HCV polymerase, the IC50 turned out to be 196 nM.

For `CCOC(=O)c1ccn2c(C3CCCCC3)c(-c3ccc(OCc4ccccc4)cc3)nc2c1` [Example 601, ethyl 2-(4-benzyloxyphenyl)-3-cyclohexylimidazo-[1,2-a]pyridine-7-carboxylate], the half-maximal inhibitory concentration (IC50) on HCV polymerase was 320 nM.

With `COc1ccc(-c2ccc(Cl)cc2)c(COc2ccc(-c3nc4cc(C(=O)O)cnc4n3C3CCCCC3)cc2)c1` [Example 701, 2-{4-[2-(4-chlorophenyl)-5-methoxybenzyloxy]phenyl}-3-cyclohexyl-3H-imidazo[4,5-b]pyridine-6-carboxylic acid], the concentration for half-maximal inhibition (IC50) at HCV polymerase stood at 52 nM.

The values are drawn from patent US20040082635A1, “Fused cyclic compounds and medicinal use thereof” (priority 2001, published 2004).
